Where a name gives a salt, the structure may show the parent alone.
tested on: Acinetobacter baumannii ATCC17961; assay: Antimicrobial susceptibility testing: 90% growth inhibitory concentration (IC90) determination in Iso-Sensitest broth, OD600 growth; assay type: cell-based; conditions: Acinetobacter baumannii, ATCC17961, 16 h, read-out: A. baumannii ATCC 17961 IC90 (uM), strain ATCC 17961, OD600 growth over 16 h
Summary of the method: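 Growth inhibition is calculated during the logarithmic phase from OD600 readings taken every 20 minutes across 16 h at 35±2° C. Bacteria at ~5×10^(5) CFU/ml face twofold dilution series (e.g. 50 to 0.097 μM final).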

Row | Compound | IC90 [µM]
1 | CCc1cc(Nc2nccn3c(-c4cn(CC#N)nc4-c4ccccc4)cnc23)ccc1C(=O)NCCOCCN [Example 781, N-[2-(2-aminoethoxy)ethyl]-4-[[3-[1-(cyanomethyl)-3-phenyl-pyrazol-4-yl]imidazo[1,2-a]pyrazin-8-yl]amino]-2-ethyl-benzamide formate] | 1.09
2 | CCc1cc(Nc2nccn3c(-c4cn(CC#N)nc4C(F)(F)F)cnc23)ccc1C(=O)N[C@H](C)C(=O)NC1CC(N)C1 (stereo partly drawn) [Example 790, N-[(1R)-2-[(3-aminocyclobutyl)amino]-1-methyl-2-oxo-ethyl]-4-[[3-[1-(cyanomethyl)-3-(trifluoromethyl)pyrazol-4-yl]imidazo[1,2-a]pyrazin-8-yl]amino]-2-ethyl-benzamide formate] | 1.64
3 | CCc1cc(Nc2nccn3c(-c4cn(CC#N)nc4C(F)(F)F)cnc23)ccc1C(=O)NCCCNC(=O)[C@H](C)N [Example 794, (S)-N-(3-(2-aminopropanamido)propyl)-4-((3-(1-(cyanomethyl)-3-(trifluoromethyl)-1H-pyrazol-4-yl)imidazo[1,2-a]pyrazin-8-yl)amino)-2-ethylbenzamide formate] | 2.2

same assay, conditions: Acinetobacter baumannii, ATCC17961, 16 h, strain ATCC 17961, OD600 growth over 16 h, read-out: A. baumannii ATCC 17961 IC90

Row | Compound | IC90 [µM]
4 | CCc1cc(Nc2nccn3c(-c4c[nH]nc4C(F)(F)F)cnc23)ccc1C(=O)NCC1CC1N (stereo not drawn) [Example 776, N-((2-aminocyclopropyl)methyl)-2-ethyl-4-((3-(3-(trifluoromethyl)-1H-pyrazol-4-yl)imidazo [1,2-a]pyrazin-8-yl)amino) benzamide formate] | 1.01
5 | Cc1cc(Nc2nccn3c(-c4cn(CC#N)nc4C(F)(F)F)cnc23)ccc1C(=O)NCC(=O)N[C@H]1CCNC1 [Example 780, 4-[[3-[1-(cyanomethyl)-3-(trifluoromethyl)pyrazol-4-yl]imidazo[1,2-a]pyrazin-8-yl]amino]-2-methyl-N-[2-oxo-2-[[(3S)-pyrrolidin-3-yl]amino]ethyl] benzamide formate] | 1.06
6 | CCc1cc(Nc2nccn3c(-c4c[nH]nc4C(F)(F)F)cnc23)ccc1C(=O)N[C@H](C)CNC(=O)[C@@H]1C[C@@H](O)CN1 [Example 782, (2S,4R)-N-((R)-2-(2-ethyl-4-((3-(3-(trifluoromethyl)-1H-pyrazol-4-yl)imidazo[1,2-a]pyrazin-8-yl)amino)benzamido)propyl)-4-hydroxypyrrolidine-2-carboxamide] | 1.15
7 | C#CCNCCCCNC(=O)c1c(C)cc(Nc2nccn3c(-c4c[nH]nc4C(F)(F)F)cnc23)cc1F [Example 783, 2-fluoro-6-methyl-N-(4-(prop-2-yn-1-ylamino)butyl)-4-((3-(3-(trifluoromethyl)-1H-pyrazol-4-yl)imidazo[1,2-a]pyrazin-8-yl)amino)benzamide] | 1.21
8 | C#CCn1cc(-c2cnc3c(Nc4ccc(C(=O)N5CCN(C(=O)[C@@H]6C[C@@H](O)CN6)CC5)c(CC)c4)nccn23)c(C(F)F)n1 [Example 785, (4-(4-((3-(3-(difluoromethyl)-1-(prop-2-yn-1-yl)-1H-pyrazol-4-yl)imidazo[1,2-a]pyrazin-8-yl)amino)-2-ethylbenzoyl)piperazin-1-yl)((2S,4R)-4-hydroxypyrrolidin-2-yl)methanone] | 1.32
9 | CCc1cc(Nc2nccn3c(-c4cn(CC(N)=O)nc4C(F)(F)F)cnc23)ccc1C(=O)NCCCNC(=O)[C@@H]1CCCN1 [Example 789, (S)-N-(3-(4-((3-(1-(2-amino-2-oxoethyl)-3-(trifluoromethyl)-1H-pyrazol-4-yl)imidazo [1,2-a]pyrazin-8-yl)amino)-2-ethylbenzamido)propyl)pyrrolidine-2-carboxamide] | 1.61
10 | CCc1cc(Nc2nccn3c(-c4cn(CC#N)nc4C(F)F)cnc23)ccc1C(=O)N1CCN(C(=O)C2CCNCC2)CC1 [Example 792, 2-(3-(difluoromethyl)-4-(8-((3-ethyl-4-(4-(piperidine-4-carbonyl)piperazine-1-carbonyl)phenyl)amino)imidazo[1,2-a]pyrazin-3-yl)-1H-pyrazol-1-yl)acetonitrile] | 1.92

Continued, values first:

Row | IC90 [µM] | Compound
11 | 1.02 | CCc1cc(Nc2nccn3c(-c4cn(CC(F)F)nc4C(F)F)cnc23)ccc1C(=O)N1CCN(C(=O)[C@@H](C)N)CC1 [Example 777, (R)-2-amino-1-(4-(4-((3-(1-(2,2-difluoroethyl)-3-(difluoromethyl)-1H-pyrazol-4-yl)imidazo[1,2-a]pyrazin-8-yl)amino)-2-ethylbenzoyl)piperazin-1-yl)propan-1-one]
12 | 1.03 | CCc1cc(Nc2nccn3c(-c4cn(COC)nc4C(F)F)cnc23)ccc1C(=O)N1CCN(C(=O)[C@@H](C)N)CC1 [Example 778, (R)-2-amino-1-(4-(4-((3-(3-(difluoromethyl)-1-(methoxymethyl)-1H-pyrazol-4-yl)imidazo[1,2-a]pyrazin-8-yl)amino)-2-ethylbenzoyl)piperazin-1-yl)propan-1-one]
13 | 1.03 | CCc1cc(Nc2nccn3c(-c4cn(CCF)nc4C(F)F)cnc23)ccc1C(=O)N1CCN(C(=O)[C@H](C)N)CC1 [Example 779, (S)-2-amino-1-(4-(4-((3-(3-(difluoromethyl)-1-(2-fluoroethyl)-1H-pyrazol-4-yl)imidazo[1,2-a]pyrazin-8-yl)amino)-2-ethylbenzoyl)piperazin-1-yl)propan-1-one]
14 | 1.43 | CCc1cc(Nc2nccn3c(-c4cn(CC(F)F)nc4C(F)F)cnc23)ccc1C(=O)N1CCN(C(=O)[C@@H]2C[C@@H](O)CN2)CC1 [Example 786, (4-(4-((3-(1-(2,2-difluoroethyl)-3-(difluoromethyl)-1H-pyrazol-4-yl)imidazo[1,2-a]pyrazin-8-yl)amino)-2-ethylbenzoyl)piperazin-1-yl)((2S,4R)-4-hydroxypyrrolidin-2-yl)methanone]
15 | 1.6 | CCc1cc(Nc2nccn3c(-c4cn(CCF)nc4C(F)F)cnc23)ccc1C(=O)N1CCN(C(=O)CN)CC1 [Example 788, 2-amino-1-(4-(4-((3-(3-(difluoromethyl)-1-(2-fluoroethyl)-1H-pyrazol-4-yl)imidazo[1,2-a]pyrazin-8-yl)amino)-2-ethylbenzoyl)piperazin-1-yl)ethan-1-one]
16 | 1.85 | CCc1cc(Nc2nccn3c(-c4cn(CCF)nc4C(F)F)cnc23)ccc1C(=O)N1CCN(C(=O)C2(O)CCNCC2)CC1 [Example 791, (4-(4-((3-(3-(difluoromethyl)-1-(2-fluoroethyl)-1H-pyrazol-4-yl)imidazo[1,2-a]pyrazin-8-yl)amino)-2-ethylbenzoyl)piperazin-1-yl)(4-hydroxypiperidin-4-yl)methanone]
17 | 1.93 | C#CCn1cc(-c2cnc3c(Nc4ccc(C(=O)N5CCN(C(=O)CN)CC5)c(CC)c4)nccn23)c(C(F)F)n1 [Example 793, 2-amino-1-(4-(4-((3-(3-(difluoromethyl)-1-(prop-2-yn-1-yl)-1H-pyrazol-4-yl)imidazo[1,2-a]pyrazin-8-yl)amino)-2-ethylbenzoyl)piperazin-1-yl)ethan-1-one]
18 | 2.23 | CCc1cc(Nc2nccn3c(-c4cn(CCF)nc4C(F)F)cnc23)ccc1C(=O)N1CCN(C(=O)[C@@H]2C[C@@H](O)CN2)CC1 [Example 795, (4-(4-((3-(3-(difluoromethyl)-1-(2-fluoroethyl)-1H-pyrazol-4-yl)imidazo[1,2-a]pyrazin-8-yl)amino)-2-ethylbenzoyl)piperazin-1-yl)((2S,4R)-4-hydroxypyrrolidin-2-yl)methanone]
